The subject of the assay is CD2F1 mice, L1210 leukemia ip, survival T/C. In words: NCI In Vivo Anticancer Drug Screen. Data for tumor model L1210 Leukemia (intraperitoneal) in CD2F1 (CDF1) mice. The settings on record: higher = longer survival. Put shortly:
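Mice carrying a transplanted tumor received test compound or vehicle alone. The value is the measurement in the treated group divided by that in the vehicle-treated control group.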

Setting [1] is: endpoint: mean survival time, dose: 25.0 mg/kg/injection, schedule: Q01DX009 (ip), vehicle: saline with Tween-80.
Setting [2] is: endpoint: mean survival time, dose: 50.0 mg/kg/injection, schedule: Q01DX009 (ip), vehicle: saline with Tween-80.
Where [3] appears, read: endpoint: mean survival time, dose: 50.0 mg/kg/injection, schedule: Q04DX003 (ip), vehicle: saline with Tween-80.
Setting [4] is: endpoint: mean survival time, dose: 100.0 mg/kg/injection, schedule: Q01DX001 (ip), vehicle: saline with Tween-80.
The mark [5] stands for this setting: endpoint: mean survival time, dose: 100.0 mg/kg/injection, schedule: Q04DX002 (ip), vehicle: saline with Tween-80.
Setting [6] is: endpoint: mean survival time, dose: 100.0 mg/kg/injection, schedule: Q04DX003 (ip), vehicle: saline with Tween-80.
[7] abbreviates: endpoint: mean survival time, dose: 200.0 mg/kg/injection, schedule: Q01DX001 (ip), vehicle: saline with Tween-80.
Setting [8] is: endpoint: mean survival time, dose: 200.0 mg/kg/injection, schedule: Q04DX002 (ip), vehicle: saline with Tween-80.
The mark [9] stands for this setting: endpoint: mean survival time, dose: 200.0 mg/kg/injection, schedule: Q04DX003 (ip), vehicle: saline with Tween-80.
The mark [10] stands for this setting: endpoint: mean survival time, dose: 400.0 mg/kg/injection, schedule: Q04DX002 (ip), vehicle: saline with Tween-80.
The mark [11] stands for this setting: endpoint: mean survival time, dose: 100.0 mg/kg/injection, schedule: Q01DX009 (ip), vehicle: saline with Tween-80.
[12] abbreviates: endpoint: mean survival time, dose: 400.0 mg/kg/injection, schedule: Q04DX003 (ip), vehicle: saline with Tween-80.
The mark [13] stands for this setting: endpoint: mean survival time, dose: 75.0 mg/kg/injection, schedule: Q01DX001 (ip), vehicle: saline.
Where [14] appears, read: endpoint: mean survival time, dose: 400.0 mg/kg/injection, schedule: Q01DX001 (ip), vehicle: saline with Tween-80.
Where [15] appears, read: endpoint: mean survival time, dose: 200.0 mg/kg/injection, schedule: Q01DX009 (ip), vehicle: saline with Tween-80.
[16] abbreviates: endpoint: mean survival time, dose: 100.0 mg/kg/injection, schedule: Q04DX003 (ip), vehicle: saline.
Where [17] appears, read: endpoint: mean survival time, dose: 200.0 mg/kg/injection, schedule: Q04DX003 (ip), vehicle: saline.
Setting [18] is: endpoint: mean survival time, dose: 400.0 mg/kg/injection, schedule: Q04DX003 (ip), vehicle: saline.

Each structure is given as a SMILES string. “And” between values parts separate entries of the source, which are not always exact repeats. Equal values may be shown once. Inconclusive results and toxic doses are left out.

Take `O=C(c1ccccc1[N+](=O)[O-])C(Br)C(Br)c1ccc(Cl)c(Cl)c1` (stereo not given): the T/C reads like this: under setting [1], 87 % of control and 94 % of control; under setting [2], 100 % of control; under setting [3], 90 % of control; under setting [4], 107 % of control; under setting [5], 89 % of control and 100 % of control; under setting [6], 87 % of control. The T/C was 95 % of control under setting [7]; 86 % of control and 96 % of control under setting [8]; 90 % of control under setting [9]; 86 % of control and 90 % of control under setting [10].

For `CC(C)(C)C1CC[N-]CC1.CC(C)(C)C1CC[N-]CC1.[Cl][Pt+2][Cl]`, the T/C was 95 % of control (endpoint: mean survival time, dose: 75.0 mg/kg/injection, schedule: Q04DX002 (ip), vehicle: saline with Tween-80); 98 % of control (endpoint: mean survival time, dose: 150.0 mg/kg/injection, schedule: Q04DX002 (ip), vehicle: saline with Tween-80); 107 % of control (endpoint: mean survival time, dose: 300.0 mg/kg/injection, schedule: Q04DX002 (ip), vehicle: saline with Tween-80).

As to `ClCCOc1ccccc1-c1ccccc1`, the T/C (endpoint: mean survival time, dose: 100.0 mg/kg/injection, schedule: Q04DX003 (ip), vehicle: other) was 98 % of control; the T/C (endpoint: mean survival time, dose: 200.0 mg/kg/injection, schedule: Q04DX003 (ip), vehicle: other) was 96 % of control; the T/C (endpoint: mean survival time, dose: 400.0 mg/kg/injection, schedule: Q04DX003 (ip), vehicle: other) was 100 % of control.

On to `O=C(NC(=O)c1ccccc1)Nc1ccccc1`, for which the T/C under setting [11] was 96 % of control; the T/C under setting [6] was 92 % of control; the T/C under setting [9] is 90 % of control; the T/C (endpoint: mean survival time, dose: 400.0 mg/kg/injection, schedule: Q01DX009 (ip), vehicle: saline with Tween-80) was 94 % of control; the T/C under setting [12] was 90 % of control.

Regarding `Cc1ncc(C[P+](c2ccccc2)(c2ccccc2)c2ccccc2)c(C)c1O`, the T/C under setting [13] was 102 % of control.

For the compound `O=NN(CCCl)C(=O)NC1OC(CO)C(O)C(O)C1O` (stereo not given), the T/C is, setting by setting: (endpoint: mean survival time, dose: 2.5 mg/kg/injection, schedule: Q01DX009 (ip), vehicle: saline) 215 % of control; (endpoint: mean survival time, dose: 5.0 mg/kg/injection, schedule: Q01DX009 (ip), vehicle: saline) 176 % of control; (endpoint: mean survival time, dose: 10.0 mg/kg/injection, schedule: Q04DX002 (ip), vehicle: saline) 243 % of control; (endpoint: mean survival time, dose: 20.0 mg/kg/injection, schedule: Q04DX002 (ip), vehicle: saline) 121 % of control; (endpoint: median survival time, dose: 1.8 mg/kg/injection, schedule: Q01DX009 (ip), vehicle: saline) 175 % of control; (endpoint: median survival time, dose: 3.0 mg/kg/injection, schedule: Q01DX009 (ip), vehicle: saline) 175 % of control. Moreover, for the setting “endpoint: median survival time, dose: 13.89 mg/kg/injection, schedule: Q01DX009 (ip), vehicle: saline”, the T/C was 96 % of control.

Turning to `Clc1ccc(/C(=C(\Br)c2ccccc2)c2ccccc2)cc1`, the T/C under setting [6] was 102 % of control and 100 % of control; the T/C under setting [9] is 100 % of control and 102 % of control; the T/C under setting [12] was 96 % of control and 94 % of control.

For the compound `CCOC(=O)CCC(C#N)(CC(=O)OCC)C(=O)OCC` (stereo not given), the T/C is 96 % of control under setting [4], 104 % of control under setting [7] and 104 % of control under setting [14].

As to `S=C(CSc1ccccc1)Nc1cccc2ccccc12`, the T/C by setting is: under setting [6], 101 % of control; under setting [9], 91 % of control; under setting [12], 93 % of control.

`CCN(CC)CCCNc1c2ccc(Cl)cc2nc2ccc(OC)nc12`: the T/C by setting is: under setting [2], 109 % of control; under setting [11], 97 % of control; under setting [15], 114 % of control.

With `COc1cc(C)ccc1C1=CCCCC1`, the T/C reads like this: under setting [16], 95 % of control; under setting [17], 95 % of control; under setting [18], 87 % of control.

Take `C/C(Cl)=C/C(=O)O.[Ag]`: the T/C under setting [13] is 93 % of control.

Consider `S=C(Nc1ccccn1)NC1CC2C=CC1C2` (stereo not given), for which the T/C by setting is: under setting [4], 93 % of control; under setting [7], 101 % of control; under setting [14], 108 % of control.

As to `O=CCCNP(=O)(OCc1ccccc1)N(CCCl)CCCl` (stereo not given), the T/C (endpoint: mean survival time, dose: 13.13 mg/kg/injection, schedule: Q01DX001 (ip), vehicle: DMSO) was 103 % of control; the T/C (endpoint: mean survival time, dose: 26.25 mg/kg/injection, schedule: Q01DX001 (ip), vehicle: DMSO) is 98 % of control; the T/C (endpoint: mean survival time, dose: 52.5 mg/kg/injection, schedule: Q01DX001 (ip), vehicle: DMSO) was 103 % of control; the T/C (endpoint: mean survival time, dose: 105.0 mg/kg/injection, schedule: Q01DX001 (ip), vehicle: DMSO) was 104 % of control; the T/C (endpoint: mean survival time, dose: 210.0 mg/kg/injection, schedule: Q01DX001 (ip), vehicle: DMSO) is 101 % of control; the T/C (endpoint: mean survival time, dose: 420.0 mg/kg/injection, schedule: Q01DX001 (ip), vehicle: DMSO) is 101 % of control. Further, the T/C (endpoint: mean survival time, dose: 840.0 mg/kg/injection, schedule: Q01DX001 (ip), vehicle: DMSO) was 101 % of control.

As for `CC[C@@H](C)[C@H]([C@H](CC(=O)N1CCC[C@@H]1[C@@H](OC)[C@H](C)C(=O)N[C@H](Cc1ccccc1)c1nccs1)OC)N(C)C(=O)[C@H](NC(=O)[C@@H](C(C)C)N(C)C)C(C)C`, the T/C was 119 % of control (endpoint: median survival time, dose: 1.63 micrograms/kg/injection, schedule: Q01DX005 (ip), vehicle: saline + alcohol); 160 % of control (endpoint: median survival time, dose: 6.5 micrograms/kg/injection, schedule: Q01DX005 (ip), vehicle: saline + alcohol); 86 % of control (endpoint: median survival time, dose: 26.0 micrograms/kg/injection, schedule: Q01DX005 (ip), vehicle: saline + alcohol).

Consider `N#Cc1nc(N)nc2c1ncn2-c1ccc(C(N)=O)cc1`, for which the T/C was 96 % of control under setting [4], 101 % of control under setting [7] and 90 % of control under setting [14].

With `OC1C2CCN(CC2)C1CN1CC=C(c2ccccc2)CC1` (stereo not given), the T/C under setting [16] is 100 % of control.

Turning to `CC#CC(=O)SCCNC(=O)CC`, the T/C runs as follows: (endpoint: mean survival time, dose: 12.5 mg/kg/injection, schedule: Q01DX009 (ip), vehicle: saline with Tween-80) 101 % of control; under setting [1], 101 % of control; (endpoint: mean survival time, dose: 25.0 mg/kg/injection, schedule: Q04DX003 (ip), vehicle: saline with Tween-80) 112 % of control; under setting [2], 101 % of control; under setting [3], 106 % of control; under setting [6], 86 % of control.

On to `Cc1c(O)c2c(c(O)c1Cc1cccc(CN)c1)C(=O)c1ccccc1C2=O`, for which the T/C by setting is: (endpoint: mean survival time, dose: 1.56 mg/kg/injection, schedule: Q01DX009 (ip), vehicle: other) 101 % of control; (endpoint: mean survival time, dose: 3.13 mg/kg/injection, schedule: Q01DX009 (ip), vehicle: other) 93 % of control; (endpoint: mean survival time, dose: 6.25 mg/kg/injection, schedule: Q01DX009 (ip), vehicle: other) 87 % of control; (endpoint: mean survival time, dose: 12.5 mg/kg/injection, schedule: Q01DX009 (ip), vehicle: other) 90 % of control; (endpoint: mean survival time, dose: 25.0 mg/kg/injection, schedule: Q01DX009 (ip), vehicle: other) 94 % of control.

`NNC(=O)COc1ccccc1`: the T/C was 101 % of control (endpoint: mean survival time, dose: 25.0 mg/kg/injection, schedule: Q04DX003 (ip), vehicle: saline); 101 % of control (endpoint: mean survival time, dose: 50.0 mg/kg/injection, schedule: Q04DX003 (ip), vehicle: saline); 103 % of control under setting [16].

With `O=S(=O)(Cl)c1ccc(F)cc1`, the T/C (endpoint: mean survival time, dose: 100.0 mg/kg/injection, schedule: Q01DX001 (ip), vehicle: saline) is 106 % of control; the T/C under setting [16] was 101 % of control; the T/C (endpoint: mean survival time, dose: 200.0 mg/kg/injection, schedule: Q01DX001 (ip), vehicle: saline) was 109 % of control; the T/C under setting [17] was 102 % of control; the T/C (endpoint: mean survival time, dose: 400.0 mg/kg/injection, schedule: Q01DX001 (ip), vehicle: saline) is 103 % of control; the T/C under setting [18] is 98 % of control.

As to `c1ccc2nc3ccccc3cc2c1`, the T/C was 101 % of control under setting [11] and 103 % of control under setting [15].

In the case of `CCCCCCCCCCCCOc1ccc(Cl)cc1`, the T/C is, setting by setting: under setting [5], 90 % of control; under setting [8], 98 % of control; under setting [10], 90 % of control.

As to `OCC1(CO)CCCC(CO)(CO)C1O`, the T/C (endpoint: mean survival time, dose: 100.0 mg/kg/injection, schedule: Q04DX002 (ip), vehicle: saline) was 94 % of control; the T/C (endpoint: mean survival time, dose: 200.0 mg/kg/injection, schedule: Q04DX002 (ip), vehicle: saline) was 94 % of control; the T/C (endpoint: mean survival time, dose: 400.0 mg/kg/injection, schedule: Q04DX002 (ip), vehicle: saline) was 94 % of control.
